Measurements taken from patent publication US10562902B2, “IRAK4 inhibitor and use thereof” (BEIJING HANMI PHARMACEUTICAL CO., LTD., priority 2015, dated 2020).

What follows are compounds tested against IRAK4 kinase (Homo sapiens (Human), UniProt Q9NWZ3) (assay: IRAK4 kinase activity inhibition assay). Details: ADP-Glo kinase assay, 10 μM ATP, MBP substrate.
Format: biochemical
Procedure: IRAK4 kinase (purchased from Life Technologies, Cat. No.: PR5612U) was diluted to 2 folds of the final concentration (the final concentration is […]) with reaction buffer (40 mM Tris-HC1, pH 7.5; 20 mM MgCl2; 0.1 mg/mL BSA; 1 mM DTT), and added to a 384-well plate at 5 μL/well. The test drugs were 10-fold serial diluted from 10 μM to set six concentration points and added to the test wells of the 384-well plate at 2.5 μL/well. After incubation for 10 min at 25° C., 10 μM of ATP and 0.1 μg/μL of an enzyme reaction substrate, myelin basic protein MBP (purchased from Signal Chem, Cat. No.: M42-51N) were added at 2.5 μL/well, and reacted at 25° C. for 60 minutes. After the reaction was completed, the kinase activity assay was performed using the ADP-Glo™ kinase assay kit (purchased from Promega, Cat. No.: V9102) according to the manufacture's instruction, i.e., 10 μL of ADP-Glo reaction reagent was first added and reacted at 25° C. for 40 minutes, 10 μL of the reaction mixture was taken and mixed with 10 μL of ADP-Glo detection reagent, and reacted at 25° C. for 30 minutes. The kinase activity was then detected, and the IC50 values of the test drugs were calculated.

Sequence of IRAK4 kinase (Q9NWZ3 whole entry): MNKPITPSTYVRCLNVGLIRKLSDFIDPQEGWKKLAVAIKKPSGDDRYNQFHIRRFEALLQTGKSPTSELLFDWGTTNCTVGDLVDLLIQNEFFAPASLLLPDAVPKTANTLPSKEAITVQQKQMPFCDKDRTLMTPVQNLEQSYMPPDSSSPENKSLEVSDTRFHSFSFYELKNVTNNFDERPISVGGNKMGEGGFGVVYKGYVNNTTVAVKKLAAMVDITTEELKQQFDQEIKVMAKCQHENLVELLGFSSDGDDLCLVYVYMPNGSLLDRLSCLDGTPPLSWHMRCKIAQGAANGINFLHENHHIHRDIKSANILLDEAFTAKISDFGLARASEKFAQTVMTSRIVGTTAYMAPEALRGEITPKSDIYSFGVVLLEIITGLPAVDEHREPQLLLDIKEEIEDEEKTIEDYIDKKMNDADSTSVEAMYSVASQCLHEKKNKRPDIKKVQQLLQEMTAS

Structure (SMILES)	IC50
COCC(C)Oc1nc(Nc2cc(C)ns2)nc2ccn(-c3cnn(C)c3)c12 (centres unmarked) [Example 56]	100 to 1000 nM
COCCCOc1nc(Nc2cc(C)ns2)nc2ccn(-c3cnn(C)c3)c12 [Example 57]	100 to 1000 nM
Cc1cc(Nc2nc(OCC3CCOC3)c3c(ccn3-c3cnn(C)c3)n2)sn1 (centres unmarked) [Example 58]	100 to 1000 nM
Cc1cc(Nc2nc(OCc3ccccn3)c3c(ccn3-c3cnn(C)c3)n2)sn1 [Example 59]	100 to 1000 nM
Cc1cc(Nc2nc(OC3CCC3)c3c(ccn3-c3cnn(C)c3)n2)sn1 [Example 60]	100 to 1000 nM
Cc1cc(Nc2nc(OC3COC3)c3c(ccn3-c3cnn(C)c3)n2)sn1 [Example 61]	≤ 100 nM
Cc1cc(Nc2nc(OC3CC(N4CCCCC4)C3)c3c(ccn3-c3cnn(C)c3)n2)sn1 (centres unmarked) [Example 62]	≤ 100 nM
Cc1cc(Nc2nc(OC3CCCC3)c3c(ccn3-c3cnn(C)c3)n2)sn1 [Example 63]	100 to 1000 nM
Cc1cc(Nc2nc(O[C@@H]3CCOC3)c3c(ccn3-c3cnn(C)c3)n2)sn1 [Example 65]	≤ 100 nM
Cc1cc(Nc2nc(OC3CCCCC3)c3c(ccn3-c3cnn(C)c3)n2)sn1 [Example 66]	≤ 100 nM
Cc1cc(Nc2nc(OC3CCC(O)CC3)c3c(ccn3-c3cnn(C)c3)n2)sn1 (centres unmarked) [Example 67]	100 to 1000 nM
COC1CCC(Oc2nc(Nc3cc(C)ns3)nc3ccn(-c4cnn(C)c4)c23)CC1 (centres unmarked) [Example 68]	100 to 1000 nM
Cc1cc(Nc2nc(OC3CCCN(C)C3)c3c(ccn3-c3cnn(C)c3)n2)sn1 (centres unmarked) [Example 69]	100 to 1000 nM
CC(=O)N1CCCC(Oc2nc(Nc3cc(C)ns3)nc3ccn(-c4cnn(C)c4)c23)C1 (centres unmarked) [Example 70]	100 to 1000 nM
Cc1cc(Nc2nc(OC3CCNCC3)c3c(ccn3-c3cnn(C)c3)n2)sn1 [Example 71]	100 to 1000 nM
Cc1cc(Nc2nc(OC3CCN(C)CC3)c3c(ccn3-c3cnn(C)c3)n2)sn1 [Example 72]	100 to 1000 nM
CC(=O)N1CCC(Oc2nc(Nc3cc(C)ns3)nc3ccn(-c4cnn(C)c4)c23)CC1 [Example 73]	100 to 1000 nM
Cc1cc(Nc2nc(OC3CCSCC3)c3c(ccn3-c3cnn(C)c3)n2)sn1 [Example 75]	100 to 1000 nM
Cc1cc(Nc2nc(OC3CCS(=O)(=O)CC3)c3c(ccn3-c3cnn(C)c3)n2)sn1 [Example 76]	100 to 1000 nM
Cn1cc(-n2ccc3nc(Nc4ccc[nH]4)nc(O[C@H]4CCOC4)c32)cn1 [Example 77]	≤ 100 nM
Cn1cc(-n2ccc3nc(Nc4cccs4)nc(O[C@H]4CCOC4)c32)cn1 [Example 78]	≤ 100 nM
Cn1cc(-n2ccc3nc(Nc4ccc(C#N)s4)nc(O[C@H]4CCOC4)c32)cn1 [Example 79]	100 to 1000 nM
Cn1cc(-n2ccc3nc(Nc4cc(C#N)cs4)nc(O[C@H]4CCOC4)c32)cn1 [Example 80]	100 to 1000 nM
Cn1cc(-n2ccc3nc(Nc4ccsc4)nc(O[C@H]4CCOC4)c32)cn1 [Example 81]	100 to 1000 nM
Cc1cc(Nc2nc(O[C@H]3CCOC3)c3c(ccn3-c3cnn(C)c3)n2)cs1 [Example 82]	100 to 1000 nM

Structure (SMILES)	IC50
Cc1cc(Nc2nc(O[C@H]3CCOC3)c3c(ccn3-c3cnn(C)c3)n2)on1 [Example 83]	100 to 1000 nM
Cc1cc(Nc2nc(O[C@H]3CCOC3)c3c(ccn3-c3cnn(C)c3)n2)[nH]n1 [Example 84]	100 to 1000 nM
Cn1cc(-n2ccc3nc(Nc4csc5ccccc45)nc(O[C@H]4CCOC4)c32)cn1 [Example 85]	1000 to 10000 nM
Cc1cc(Nc2nc(OC3CCOCC3)c3c(ccn3-c3ccn(C)c3)n2)sn1 [Example 86]	100 to 1000 nM
Cc1cc(Nc2nc(O[C@H]3CCOC3)c3c(ccn3-c3ccoc3)n2)sn1 [Example 87]	≤ 100 nM
Cc1cc(Nc2nc(OC3CCOCC3)c3c(ccn3-c3ccoc3)n2)sn1 [Example 88]	100 to 1000 nM
Cc1cc(Nc2nc(OC3CCOCC3)c3c(ccn3-c3ccsc3)n2)sn1 [Example 89]	100 to 1000 nM
CCn1cc(-n2ccc3nc(Nc4cc(C)ns4)nc(OC4CCOCC4)c32)cn1 [Example 90]	100 to 1000 nM
COCCn1cc(-n2ccc3nc(Nc4cc(C)ns4)nc(OC4CCOCC4)c32)cn1 [Example 91]	100 to 1000 nM
Cc1cc(Nc2nc(OC3CCOCC3)c3c(ccn3-c3ccccc3)n2)sn1 [Example 92]	100 to 1000 nM
COc1ccccc1-n1ccc2nc(Nc3cc(C)ns3)nc(OC3CCOCC3)c21 [Example 93]	1000 to 10000 nM
COc1cccc(-n2ccc3nc(Nc4cc(C)ns4)nc(OC4CCOCC4)c32)c1 [Example 94]	1000 to 10000 nM
COc1ccc(-n2ccc3nc(Nc4cc(C)ns4)nc(OC4CCOCC4)c32)cc1 [Example 95]	1000 to 10000 nM
Cc1cc(Nc2nc(OC3CCOCC3)c3c(ccn3-c3cccc(N(C)C)c3)n2)sn1 [Example 96]	1000 to 10000 nM
Cc1cc(Nc2nc(OC3CCOCC3)c3c(ccn3-c3ccncc3)n2)sn1 [Example 97]	100 to 1000 nM
Cc1cc(Nc2nc(OC3CCOCC3)c3c(ccn3-c3cccnc3)n2)sn1 [Example 98]	100 to 1000 nM
COc1cncc(-n2ccc3nc(Nc4cc(C)ns4)nc(OC4CCOCC4)c32)c1 [Example 99]	100 to 1000 nM
Cc1cc(Nc2nc(O[C@H]3CCOC3)c3c(ccn3-c3ccncc3)n2)sn1 [Example 100]	100 to 1000 nM
COc1cc(-n2ccc3nc(Nc4cc(C)ns4)nc(OC4CCOCC4)c32)ccn1 [Example 101]	100 to 1000 nM
Cc1cc(Nc2nc(OC3CCOCC3)c3c(ccn3-c3ccnnc3)n2)sn1 [Example 102]	100 to 1000 nM
Cc1cc(Nc2nc(OC3CCOCC3)c3c(ccn3-c3cncnc3)n2)sn1 [Example 103]	100 to 1000 nM
Cc1cc(Nc2nc(OC3CCOCC3)c3c(ccn3-c3cccc4c3OCCO4)n2)sn1 [Example 104]	100 to 1000 nM
Cn1cc(Nc2nc(O[C@H]3CCOC3)c3c(ccn3-c3cnn(C)c3)n2)cn1 [Example 105, (S)-(1-methyl-1H-pyrazol-4-yl)-[5-(1-methyl-1H-pyrazol-4-yl)-4-(tetrahydrofuran-3-yloxy)-5H-pyrrolo[3,2-d]pyrimidin-2-yl]amine]	≤ 100 nM
Cn1cc(-n2ccc3nc(Nc4cn[nH]c4)nc(O[C@H]4CCOC4)c32)cn1 [Example 106]	≤ 100 nM
Cn1cc(-n2ccc3nc(Nc4cnn(CCF)c4)nc(O[C@H]4CCOC4)c32)cn1 [Example 107]	≤ 100 nM

Structure (SMILES)	IC50
Cn1cc(-n2ccc3nc(Nc4cnn(CCO)c4)nc(O[C@H]4CCOC4)c32)cn1 [Example 108]	≤ 100 nM
Cn1cc(-n2ccc3nc(Nc4cnn(C5CCCCC5)c4)nc(O[C@H]4CCOC4)c32)cn1 [Example 109]	100 to 1000 nM
Cn1cc(-n2ccc3nc(Nc4cnn(C5CCOCC5)c4)nc(O[C@H]4CCOC4)c32)cn1 [Example 110]	≤ 100 nM
CN1CCC(n2cc(Nc3nc(O[C@H]4CCOC4)c4c(ccn4-c4cnn(C)c4)n3)cn2)CC1 [Example 111]	≤ 100 nM
Cn1cc(-n2ccc3nc(Nc4cnn(-c5ccccc5)c4)nc(O[C@H]4CCOC4)c32)cn1 [Example 112]	100 to 1000 nM
Cn1cc(-n2ccc3nc(Nc4cnn(-c5ccncc5)c4)nc(O[C@H]4CCOC4)c32)cn1 [Example 113]	≤ 100 nM
Cn1cc(-n2ccc3nc(Nc4cnn(-c5cccnc5)c4)nc(O[C@H]4CCOC4)c32)cn1 [Example 114]	≤ 100 nM
Cn1cc(-n2ccc3nc(Nc4cnoc4)nc(O[C@H]4CCOC4)c32)cn1 [Example 115]	100 to 1000 nM
Cn1cc(-n2ccc3nc(Nc4ccccc4)nc(O[C@H]4CCOC4)c32)cn1 [Example 116]	100 to 1000 nM
Cn1cc(-n2ccc3nc(Nc4cccnc4)nc(O[C@H]4CCOC4)c32)cn1 [Example 117]	1000 to 10000 nM
Cn1cc(-n2ccc3nc(Nc4ccc(N5CCOCC5)cc4)nc(O[C@H]4CCOC4)c32)cn1 [Example 118]	100 to 1000 nM
Cn1cc(-n2ccc3nc(Nc4ccc(C(=O)N5CCOCC5)cc4)nc(O[C@H]4CCOC4)c32)cn1 [Example 119]	100 to 1000 nM
Cn1cc(-n2ccc3nc(Nc4ccc5c(c4)CNC5=O)nc(O[C@H]4CCOC4)c32)cn1 [Example 120]	≤ 100 nM
CN1Cc2cc(Nc3nc(O[C@H]4CCOC4)c4c(ccn4-c4cnn(C)c4)n3)ccc2C1=O [Example 121]	≤ 100 nM
Cn1cc(-n2ccc3nc(Nc4ccc5c(c4)C(=O)NC5)nc(O[C@H]4CCOC4)c32)cn1 [Example 122]	100 to 1000 nM
Cn1cc(-n2ccc3nc(Nc4ccc5[nH]ncc5c4)nc(O[C@H]4CCOC4)c32)cn1 [Example 123]	≤ 100 nM
Cn1cc(-n2ccc3nc(Nc4ccc5cn[nH]c5c4)nc(O[C@H]4CCOC4)c32)cn1 [Example 124]	100 to 1000 nM
Cn1cc(-n2ccc3nc(Nc4ccc5ncsc5c4)nc(O[C@H]4CCOC4)c32)cn1 [Example 125]	100 to 1000 nM
CNC(=O)c1csc(Nc2nc(O[C@H]3CCOC3)c3c(ccn3-c3ccoc3)n2)c1 [Example 126]	≤ 100 nM
CCNC(=O)c1csc(Nc2nc(OC(C)C)c3c(ccn3-c3cnn(C)c3)n2)c1 [Example 127]	≤ 100 nM
CCNC(=O)c1csc(Nc2nc(OC3CCCC3)c3c(ccn3-c3cnn(C)c3)n2)c1 [Example 128]	100 to 1000 nM
CCNC(=O)c1csc(Nc2nc(OC3CCCCC3)c3c(ccn3-c3cnn(C)c3)n2)c1 [Example 129]	100 to 1000 nM
CCNC(=O)c1csc(Nc2nc(OCCOC)c3c(ccn3-c3cnn(C)c3)n2)c1 [Example 130]	≤ 100 nM
CCNC(=O)c1csc(Nc2nc(O[C@@H]3CCOC3)c3c(ccn3-c3cnn(C)c3)n2)c1 [Example 131]	≤ 100 nM
